Columns and labels:
Assay type in all cases: in vivo
rice (Oryra sativa) = experiment: Test B flooded paddy test; conditions: Oryza sativa, Flood, 250 g ai/ha; scale of 0 to 100 where 0 is no effect and 100 is complete control; read-out: Rice plant response rating
Summary of the method: (§1)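 Visual ratings (0 none to 100 complete control) are relative to untreated plants, taken 13–15 d after treatment in a greenhouse. Test material went straight into floodwater standing 3 cm above the soil, kept constant, on plants at the 2-leaf stage.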

[1] = system: ducksalad (Heteranthera limosa); experiment: Test B flooded paddy test; conditions: Heteranthera limosa, Flood, 250 g ai/ha; scale of 0 to 100 where 0 is no effect and 100 is complete control; read-out: Ducksalad plant response rating
Summary of the method: as §1

[2] = system: barnyardgrass (Echinochloa crus-galli); experiment: Test B flooded paddy test; conditions: Echinochloa crus-galli, Flood, 250 g ai/ha; scale of 0 to 100 where 0 is no effect and 100 is complete control; read-out: Barnyardgrass plant response rating
Summary of the method: as §1

[3] = system: sedge, umbrella (small-flower umbrella sedge, Cyperus difformis); experiment: Test B flooded paddy test; conditions: Cyperus difformis, Flood, 250 g ai/ha; scale of 0 to 100 where 0 is no effect and 100 is complete control; read-out: Sedge, Umbrella plant response rating
Summary of the method: as §1

[4] = system: pigweed (Amaranthus retroflexus); experiment: Test A preemergence; conditions: Amaranthus retroflexus, pre-emergence, 240 h; for pest or weed control at 125 g/ha: 125 g ai/ha, preemergence, 0 to 100 scale where 0 is no effect and 100 is complete control, read-out: Pigweed plant response rating; for pest or weed control at 500 g/ha: 500 g ai/ha, Preemergence, visual injury vs untreated controls after approximately 10 d, read-out: Pigweed plant response rating (0 to 100 scale where 0 is no effect and 100 is complete control)
[5] = system: ragweed (common ragweed, Ambrosia elatior); experiment: Test A preemergence; conditions: Ambrosia artemisiifolia, pre-emergence, 240 h; for pest or weed control at 125 g/ha: 125 g ai/ha, preemergence, 0 to 100 scale where 0 is no effect and 100 is complete control, read-out: Ragweed plant response rating; for pest or weed control at 500 g/ha: 500 g ai/ha, Preemergence, visual injury vs untreated controls after approximately 10 d, read-out: Ragweed plant response rating (0 to 100 scale where 0 is no effect and 100 is complete control)
Summary of the method: (§2)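 Preemergence soil spray on seeded pots or post-emergence spray on 1–2 leaf plants, in loam–sand blend. Greenhouse ~10 d. Visual rating 0–100 against untreated plants.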

[6] = system: barnyardgrass (Echinochloa crus-galli); experiment: Test A preemergence; conditions: Echinochloa crus-galli, pre-emergence, 240 h; for pest or weed control at 125 g/ha: 125 g ai/ha, preemergence, 0 to 100 scale where 0 is no effect and 100 is complete control, read-out: Barnyardgrass plant response rating; for pest or weed control at 500 g/ha: 500 g ai/ha, Preemergence, visual injury vs untreated controls after approximately 10 d, read-out: Barnyardgrass plant response rating (0 to 100 scale where 0 is no effect and 100 is complete control)
Summary of the method: as §2

Kochia (Kochia scoparia) [7] = experiment: Test A preemergence; conditions: Bassia scoparia, pre-emergence, 240 h; for pest or weed control at 125 g/ha: 125 g ai/ha, preemergence, 0 to 100 scale where 0 is no effect and 100 is complete control, read-out: Kochia plant response rating; for pest or weed control at 500 g/ha: 500 g ai/ha, Preemergence, visual injury vs untreated controls after approximately 10 d, read-out: Kochia plant response rating (0 to 100 scale where 0 is no effect and 100 is complete control)
Summary of the method: as §2

[8] = system: giant foxtail (Setaria faberii); experiment: Test A preemergence; conditions: Setaria faberi, pre-emergence, 240 h; for pest or weed control at 125 g/ha: 125 g ai/ha, preemergence, 0 to 100 scale where 0 is no effect and 100 is complete control, read-out: Foxtail, Giant plant response rating; for pest or weed control at 500 g/ha: 500 g ai/ha, Preemergence, visual injury vs untreated controls after approximately 10 d, read-out: Foxtail, Giant plant response rating (0 to 100 scale where 0 is no effect and 100 is complete control)
Summary of the method: as §2

[9] = system: ryegrass, Italian (Italian ryegrass, Lolium multiflorum); experiment: Test A preemergence; conditions: Lolium multiflorum, pre-emergence, 240 h; for pest or weed control at 125 g/ha: 125 g ai/ha, preemergence, 0 to 100 scale where 0 is no effect and 100 is complete control, read-out: Ryegrass, Italian plant response rating; for pest or weed control at 500 g/ha: 500 g ai/ha, Preemergence, visual injury vs untreated controls after approximately 10 d, read-out: Ryegrass, Italian plant response rating (0 to 100 scale where 0 is no effect and 100 is complete control)
Summary of the method: as §2

[10] = system: Galium (catchweed bedstraw, Galium aparine); experiment: Test A postemergence; conditions: Galium, post-emergence, 240 h, 125 g ai/ha, postemergence, visual injury rating after approximately 10 d; read-out: Galium plant response rating (0 to 100 scale, 0 no effect, 100 complete control)
Summary of the method: as §2

[11] = system: ragweed (common ragweed, Ambrosia elatior); experiment: Test A postemergence; conditions: Ambrosia artemisiifolia, post-emergence, 240 h, 125 g ai/ha, postemergence, visual injury rating after approximately 10 d; read-out: Ragweed plant response rating (0 to 100 scale, 0 no effect, 100 complete control)
Summary of the method: as §2

Kochia (Kochia scoparia) [12] = experiment: Test A postemergence; conditions: Bassia scoparia, post-emergence, 240 h, 125 g ai/ha, postemergence, visual injury rating after approximately 10 d; read-out: Kochia plant response rating (0 to 100 scale, 0 no effect, 100 complete control)
Summary of the method: as §2

[13] = system: ryegrass, Italian (Italian ryegrass, Lolium multiflorum); experiment: Test A postemergence; conditions: Lolium multiflorum, post-emergence, 240 h, 125 g ai/ha, postemergence, visual injury rating after approximately 10 d; read-out: Ryegrass, Italian plant response rating (0 to 100 scale, 0 no effect, 100 complete control)
Summary of the method: as §2

[14] = system: wheat (Triticum aestivum); experiment: Test A postemergence; conditions: Triticum aestivum, post-emergence, 240 h, 125 g ai/ha, postemergence, visual injury rating after approximately 10 d; read-out: Wheat plant response rating (0 to 100 scale, 0 no effect, 100 complete control)
Summary of the method: as §2

Structure (SMILES) | pest or weed control at 250 g/ha (rice (Oryra sativa)) | pest or weed control at 250 g/ha [1] | pest or weed control at 250 g/ha [2] | pest or weed control at 250 g/ha [3] | pest or weed control at 125 g/ha [4] | pest or weed control at 500 g/ha [4] | pest or weed control at 125 g/ha [5] | pest or weed control at 500 g/ha [5] | pest or weed control at 125 g/ha [6] | pest or weed control at 500 g/ha [6] | pest or weed control at 125 g/ha (Kochia (Kochia scoparia) [7]) | pest or weed control at 500 g/ha (Kochia (Kochia scoparia) [7]) | pest or weed control at 125 g/ha [8] | pest or weed control at 500 g/ha [8] | pest or weed control at 125 g/ha [9] | pest or weed control at 500 g/ha [9] | pest or weed control at 125 g/ha [10] | pest or weed control at 125 g/ha [11] | pest or weed control at 125 g/ha (Kochia (Kochia scoparia) [12]) | pest or weed control at 125 g/ha [13] | further results
CCOc1ccc([C@H]2CN(C)C(=O)[C@@H]2C(=O)Nc2ccccc2F)cc1 [Compound 903] | 0% | 0% | 0% | 0% | 0% | 0% | 0% | 0% | 90% | 90% | 20% | 90% | 90% | 90% | 0% | 0% | 10% | 0% | 0% | 0% | plant injury at 125 g/ha [14]: 0%
CCOc1ccc([C@H]2CNC(=O)[C@@H]2C(=O)Nc2ccccc2F)cc1 [Compound 906] | 0% | 0% | 0% | 0% | 0% | 0% | 0% | 0% | 0% | 0% | 0% | 0% | 0% | 0% | 0% | 0% | 0% | 0% | 0% | 0% | plant injury at 125 g/ha [14]: 0%
CCOc1ccc([C@H]2CNC(=O)[C@@H]2C(=O)Nc2cccc(F)c2F)cc1 [Compound 907] | 0% | 50% | 0% | 0% | 0% | 0% | 0% | 0% | 70% | 80% | 0% | 20% | 80% | 90% | 0% | 0% | 0% | 0% | 0% | 0% | plant injury at 125 g/ha [14]: 0%
Cc1cc(C)cc([C@H]2CNC(=O)[C@@H]2C(=O)Nc2ccccc2C(F)(F)F)c1 [Compound 909] | 0% | 70% | 40% | 0% | 0% | 0% | 0% | 20% | 70% | 80% | 0% | 50% | 90% | 90% | 0% | 30% | 0% | 0% | 0% | 0% | plant injury at 125 g/ha [14]: 0%
Cc1cc(C)cc([C@H]2CN(C)C(=O)[C@@H]2C(=O)Nc2ccccc2F)c1 [Compound 910] | 0% | 85% | 70% | 0% | 0% | 30% | 0% | 0% | 90% | 100% | 60% | 90% | 90% | 100% | 50% | 60% | 30% | 10% | 20% | 50% | plant injury at 125 g/ha [14]: 0%
Cc1cc(C)cc([C@H]2CN(C)C(=O)[C@@H]2C(=O)Nc2ccccc2C(F)(F)F)c1 [Compound 912] | 0% | 50% | 50% | 0% | 0% | 0% | 0% | 0% | 80% | 90% | 60% | 70% | 90% | 100% | 40% | 50% | 0% | 0% | 0% | 20% | plant injury at 125 g/ha [14]: 20%

From patent US12077503B2, “Substituted cyclic amides and their use as herbicides” (FMC CORPORATION, priority 2015, dated 2024)
